Experimental data reported in publication PMC7827085 (Pharmaceutics, 2021).
Substitutions are numbered along the chain they refer to.

Experiments:
[1] = target: T1, OATP1A2 (Homo sapiens, UniProt P46721); test: cell-based
T1 sequence (P46721 1-670): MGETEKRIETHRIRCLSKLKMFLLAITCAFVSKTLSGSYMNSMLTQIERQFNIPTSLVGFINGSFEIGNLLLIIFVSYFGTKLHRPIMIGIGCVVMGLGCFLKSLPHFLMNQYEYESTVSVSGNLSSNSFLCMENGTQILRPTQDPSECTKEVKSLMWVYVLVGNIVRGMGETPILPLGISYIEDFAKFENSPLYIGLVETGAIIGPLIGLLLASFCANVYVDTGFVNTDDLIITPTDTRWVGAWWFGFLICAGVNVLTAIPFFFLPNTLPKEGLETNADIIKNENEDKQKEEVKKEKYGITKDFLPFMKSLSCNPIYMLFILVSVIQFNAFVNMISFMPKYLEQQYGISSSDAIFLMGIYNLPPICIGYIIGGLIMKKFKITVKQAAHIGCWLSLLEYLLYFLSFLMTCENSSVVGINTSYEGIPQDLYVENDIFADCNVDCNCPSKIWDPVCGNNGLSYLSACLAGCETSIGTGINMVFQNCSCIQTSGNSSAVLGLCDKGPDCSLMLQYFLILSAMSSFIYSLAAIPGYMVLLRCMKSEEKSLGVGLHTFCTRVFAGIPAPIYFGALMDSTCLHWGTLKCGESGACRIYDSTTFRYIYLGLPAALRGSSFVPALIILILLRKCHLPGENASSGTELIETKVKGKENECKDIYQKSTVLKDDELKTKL

[2] = target: T2, ABCB1/Pgp (Homo sapiens, UniProt P08183); test: ABCB1-ATPase activity in Sf9 membrane vesicles; format: biochemical
T2 construct: made in house; host or cells: Sf9 insect cells
T2 sequence (P08183 whole entry): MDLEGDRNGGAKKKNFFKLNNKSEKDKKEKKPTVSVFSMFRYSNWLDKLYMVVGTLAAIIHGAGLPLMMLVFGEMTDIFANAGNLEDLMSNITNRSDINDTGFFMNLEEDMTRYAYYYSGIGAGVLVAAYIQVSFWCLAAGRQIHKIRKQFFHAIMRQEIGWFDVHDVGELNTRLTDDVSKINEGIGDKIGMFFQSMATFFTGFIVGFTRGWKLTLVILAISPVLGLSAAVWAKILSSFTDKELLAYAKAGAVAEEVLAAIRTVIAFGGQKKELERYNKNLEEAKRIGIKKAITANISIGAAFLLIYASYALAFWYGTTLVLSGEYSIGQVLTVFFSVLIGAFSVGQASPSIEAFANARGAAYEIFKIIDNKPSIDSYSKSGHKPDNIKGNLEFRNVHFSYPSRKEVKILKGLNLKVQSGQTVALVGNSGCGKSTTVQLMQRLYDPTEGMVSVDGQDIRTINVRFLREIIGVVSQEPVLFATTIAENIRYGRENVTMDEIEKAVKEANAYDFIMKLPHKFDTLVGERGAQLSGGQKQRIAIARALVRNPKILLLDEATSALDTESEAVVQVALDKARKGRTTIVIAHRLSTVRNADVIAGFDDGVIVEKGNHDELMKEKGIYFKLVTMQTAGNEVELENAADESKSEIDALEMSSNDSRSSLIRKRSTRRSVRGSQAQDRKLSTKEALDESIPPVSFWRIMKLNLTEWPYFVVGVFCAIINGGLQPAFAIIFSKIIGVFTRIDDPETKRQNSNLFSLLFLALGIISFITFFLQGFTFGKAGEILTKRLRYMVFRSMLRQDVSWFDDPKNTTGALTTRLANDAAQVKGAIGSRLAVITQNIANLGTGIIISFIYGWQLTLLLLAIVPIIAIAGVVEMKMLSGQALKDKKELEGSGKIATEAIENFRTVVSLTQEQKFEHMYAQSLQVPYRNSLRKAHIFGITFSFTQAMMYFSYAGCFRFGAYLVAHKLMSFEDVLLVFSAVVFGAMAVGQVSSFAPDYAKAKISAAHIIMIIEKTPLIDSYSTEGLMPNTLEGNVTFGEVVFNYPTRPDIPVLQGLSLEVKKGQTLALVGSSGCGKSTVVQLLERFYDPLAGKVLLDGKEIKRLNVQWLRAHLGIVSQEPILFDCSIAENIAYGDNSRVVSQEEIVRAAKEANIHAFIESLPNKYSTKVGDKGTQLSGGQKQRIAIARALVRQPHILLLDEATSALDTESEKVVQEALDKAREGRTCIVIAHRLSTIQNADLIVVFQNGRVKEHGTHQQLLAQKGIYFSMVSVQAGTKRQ
Method: ABC transporter ATPase activity was measured in Sf9 membrane vesicles containing the respective human ABC transporters. For ABCG2/BCRP, the cholesterol level in the vesicles was increased to the level of mammalian cell membranes for full activity. For ABCB1/Pgp 20 μg/150 μL and for ABCG2/BCRP 10 μg/150 μL, vesicles were incubated with 3 mM Mg-ATP for 25 min at 37 °C. The test drugs were dissolved in DMSO and 1 µL was added to the samples. The ABC transporter-related ATPase activity was determined and reference activators (50 µM verapamil for ABCB1 and 5 µM quercetin for ABCG2) served as controls.
Drug-stimulated ATPase activity of the ABCB1 transporter is a well-documented functional assay employed to estimate the substrate or inhibitory features of various drugs. […] In this assay, most transported substrates show a biphasic curve: Low concentrations stimulate, while higher concentrations inhibit, the ATPase activity. In these experiments, we measured the vanadate-sensitive (ABC transporter-related) ABCB1-ATPase activity in membrane vesicles isolated from ABCB1 overexpressing Sf9 cells.

[3] = target: T3, wild-type ABCG2 (Homo sapiens, UniProt Q9UNQ0); test: Hoechst 33342 dye extrusion in HeLa cells expressing wild-type ABCG2; format: cell-based; settings: wild-type ABCG2, 0.2 µM Hoechst 33342, full inhibition by 1 µM Ko143
T3 construct: expressed in transfected cells; host or cells: HeLa (Sleeping Beauty transposon system)
T3 sequence (Q9UNQ0 1-655): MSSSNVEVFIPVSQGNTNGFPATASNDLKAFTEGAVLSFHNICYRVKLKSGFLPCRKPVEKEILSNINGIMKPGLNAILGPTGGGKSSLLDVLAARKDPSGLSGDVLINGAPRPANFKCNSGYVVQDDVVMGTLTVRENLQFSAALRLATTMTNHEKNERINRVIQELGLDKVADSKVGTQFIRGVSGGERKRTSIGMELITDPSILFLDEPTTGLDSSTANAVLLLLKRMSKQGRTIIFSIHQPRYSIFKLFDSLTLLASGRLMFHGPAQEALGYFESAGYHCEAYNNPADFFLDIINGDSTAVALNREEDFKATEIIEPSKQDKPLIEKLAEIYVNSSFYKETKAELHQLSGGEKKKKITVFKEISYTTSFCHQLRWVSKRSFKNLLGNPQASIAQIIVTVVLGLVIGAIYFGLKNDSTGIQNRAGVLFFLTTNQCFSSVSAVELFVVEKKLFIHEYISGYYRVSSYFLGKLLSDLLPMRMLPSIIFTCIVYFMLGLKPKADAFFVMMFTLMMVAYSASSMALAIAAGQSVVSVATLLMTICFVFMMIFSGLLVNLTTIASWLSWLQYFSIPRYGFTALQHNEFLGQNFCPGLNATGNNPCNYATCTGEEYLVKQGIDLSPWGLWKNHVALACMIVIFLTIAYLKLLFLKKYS

[4] = target: T4, Q141K-ABCG2 variant (Homo sapiens, UniProt Q9UNQ0, Q141K); test: Hoechst 33342 dye extrusion in HeLa cells expressing Q141K-ABCG2; format: cell-based; settings: Q141K-ABCG2 variant vs WT
T4 construct: expressed in transfected cells; host or cells: HeLa (Sleeping Beauty transposon system)
T4 sequence (Q9UNQ0 1-655 Q141K): T3 sequence (Q9UNQ0 1-655) with Q141K

[5] = target: T5, OATP2B1 (Homo sapiens, UniProt O94956); test: cell-based
T5 sequence (O94956 1-709): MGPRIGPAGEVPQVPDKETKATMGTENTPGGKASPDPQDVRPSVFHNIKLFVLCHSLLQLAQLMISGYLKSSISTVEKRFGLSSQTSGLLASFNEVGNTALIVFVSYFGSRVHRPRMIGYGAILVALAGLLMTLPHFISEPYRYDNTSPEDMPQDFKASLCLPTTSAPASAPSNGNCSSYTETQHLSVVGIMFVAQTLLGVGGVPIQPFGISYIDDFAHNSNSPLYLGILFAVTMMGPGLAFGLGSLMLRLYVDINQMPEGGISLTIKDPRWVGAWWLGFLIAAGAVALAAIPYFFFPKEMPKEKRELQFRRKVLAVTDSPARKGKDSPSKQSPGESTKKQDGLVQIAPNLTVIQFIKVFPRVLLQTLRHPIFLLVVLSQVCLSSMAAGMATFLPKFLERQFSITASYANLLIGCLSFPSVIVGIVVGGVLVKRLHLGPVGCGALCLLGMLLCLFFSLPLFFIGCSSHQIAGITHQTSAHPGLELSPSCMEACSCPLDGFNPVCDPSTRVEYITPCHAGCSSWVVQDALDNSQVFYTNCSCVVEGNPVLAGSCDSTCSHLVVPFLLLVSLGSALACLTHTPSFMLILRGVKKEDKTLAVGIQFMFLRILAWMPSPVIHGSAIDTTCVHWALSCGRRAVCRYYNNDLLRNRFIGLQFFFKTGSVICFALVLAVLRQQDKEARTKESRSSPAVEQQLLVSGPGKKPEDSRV

[6] = target: T6, ABCG2/BCRP (Homo sapiens, UniProt Q9UNQ0); test: ABCG2-ATPase activity in Sf9 membrane vesicles; format: biochemical; parameters: expressed in transfected cells; host or cells: PLB-985; settings: Sf9/ABCG2 membranes; ivermectin, ritonavir, lopinavir at low micromolar, remdesivir at higher concentrations
T6 sequence (Q9UNQ0 1-655): T3 sequence (Q9UNQ0 1-655)
Method: ABC transporter ATPase activity was measured in Sf9 membrane vesicles containing the respective human ABC transporters [46, 47, 48, 49, 50]. For ABCG2/BCRP, the cholesterol level in the vesicles was increased to the level of mammalian cell membranes for full activity [49]. For ABCB1/Pgp 20 μg/150 μL and for ABCG2/BCRP 10 μg/150 μL, vesicles were incubated with 3 mM Mg-ATP for 25 min at 37 °C. The test drugs were dissolved in DMSO and 1 µL was added to the samples. The ABC transporter-related ATPase activity was determined and reference activators (50 µM verapamil for ABCB1 and 5 µM quercetin for ABCG2) served as controls.
Drug-stimulated ATPase activity of the ABCG2 transporter was also measured in the present study.

[7] = target: ABCC1/MRP1 (Homo sapiens, UniProt P33527); test: in vitro
Chain of ABCC1/MRP1 (P33527 whole entry): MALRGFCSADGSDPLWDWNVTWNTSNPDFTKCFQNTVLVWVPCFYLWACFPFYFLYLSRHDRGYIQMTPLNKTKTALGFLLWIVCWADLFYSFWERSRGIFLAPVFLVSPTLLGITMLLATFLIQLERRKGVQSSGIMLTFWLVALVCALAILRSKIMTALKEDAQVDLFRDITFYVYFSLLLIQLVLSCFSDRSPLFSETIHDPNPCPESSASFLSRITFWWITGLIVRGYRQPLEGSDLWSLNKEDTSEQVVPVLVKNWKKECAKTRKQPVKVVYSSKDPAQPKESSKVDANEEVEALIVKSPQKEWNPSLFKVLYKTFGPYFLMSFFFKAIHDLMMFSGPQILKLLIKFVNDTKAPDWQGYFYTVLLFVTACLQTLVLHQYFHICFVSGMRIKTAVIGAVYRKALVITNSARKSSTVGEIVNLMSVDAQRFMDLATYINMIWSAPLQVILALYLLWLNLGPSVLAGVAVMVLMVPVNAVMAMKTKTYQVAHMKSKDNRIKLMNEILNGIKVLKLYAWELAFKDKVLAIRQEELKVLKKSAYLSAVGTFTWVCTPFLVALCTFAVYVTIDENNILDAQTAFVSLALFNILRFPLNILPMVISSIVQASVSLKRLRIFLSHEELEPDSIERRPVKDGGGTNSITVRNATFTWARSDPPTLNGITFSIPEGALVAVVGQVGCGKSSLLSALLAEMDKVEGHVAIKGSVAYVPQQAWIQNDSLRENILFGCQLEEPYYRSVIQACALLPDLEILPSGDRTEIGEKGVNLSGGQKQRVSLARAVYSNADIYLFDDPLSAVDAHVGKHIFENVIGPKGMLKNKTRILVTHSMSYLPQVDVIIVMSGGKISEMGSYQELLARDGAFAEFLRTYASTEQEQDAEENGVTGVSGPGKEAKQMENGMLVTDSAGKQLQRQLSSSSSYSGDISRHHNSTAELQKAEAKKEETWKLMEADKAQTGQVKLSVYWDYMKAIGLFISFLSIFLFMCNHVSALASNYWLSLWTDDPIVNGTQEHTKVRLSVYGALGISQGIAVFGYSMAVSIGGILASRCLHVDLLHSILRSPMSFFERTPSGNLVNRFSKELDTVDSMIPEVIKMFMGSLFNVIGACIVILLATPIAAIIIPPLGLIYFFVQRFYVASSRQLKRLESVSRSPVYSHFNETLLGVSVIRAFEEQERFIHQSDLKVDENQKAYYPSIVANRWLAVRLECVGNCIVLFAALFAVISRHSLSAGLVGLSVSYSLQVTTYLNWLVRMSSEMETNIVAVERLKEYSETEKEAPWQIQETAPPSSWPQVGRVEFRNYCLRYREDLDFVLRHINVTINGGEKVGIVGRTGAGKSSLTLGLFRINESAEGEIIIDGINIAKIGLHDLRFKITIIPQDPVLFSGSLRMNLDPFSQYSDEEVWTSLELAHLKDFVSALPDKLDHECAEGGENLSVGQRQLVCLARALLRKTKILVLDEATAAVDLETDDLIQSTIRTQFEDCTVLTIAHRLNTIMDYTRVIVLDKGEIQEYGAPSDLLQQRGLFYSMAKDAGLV

Cc1cccc(C)c1OCC(=O)N[C@@H](Cc1ccccc1)[C@@H](O)C[C@H](Cc1ccccc1)NC(=O)[C@H](C(C)C)N1CCCNC1=O [lopinavir]
IC50 [1]: 1500 nM | Concentration of maximal ABCB1-ATPase stimulation ([2]; Sf9/ABCB1 membranes): around 0.5 µM | Effect on ABCB1-ATPase activity (in words) ([2]; Sf9/ABCB1 membranes, 50 µM verapamil as reference activator): significant ABCB1-ATPase stimulation | Effect on ABCB1-ATPase activity at higher concentrations (in words) ([2]; at higher concentrations): inhibitory effects | Effect on Hst dye extrusion by ABCG2 in HeLa cells (in words) [3]: inhibited | Inhibition of Hst dye extrusion in Q141K-ABCG2 HeLa cells compared with wild type (in words) [4]: significantly stronger inhibition | IC50 [5]: 1000 nM | Effect on baseline ABCG2-ATPase activity (in words) [6]: significantly inhibited | inhibition at 3 min [7]: 60%
